# From PubChem BioAssay (NCI)
#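 These data come from cells grown in 96-well plates and exposed to compound for 48 hours at five concentrations. The concentration for 50% growth inhibition is given as GI50. TGI: concentration producing complete growth inhibition.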
# Key:
# Test in all cases: NCI anticancer screen, dose series, 48 h
# A549 NSCLC = tested on: A549 NSCLC
# U251 CNS = tested on: U251 CNS
# 786-0 renal = tested on: 786-0 renal
# SW-620 colon = tested on: SW-620 colon
# A498 renal = tested on: A498 renal
# KM12 colon = tested on: KM12 colon
# HCT-116 colon = tested on: HCT-116 colon
# OVCAR-3 ovarian = tested on: OVCAR-3 ovarian
# OVCAR-4 ovarian = tested on: OVCAR-4 ovarian
# SR leukemia = tested on: SR leukemia
Structure (SMILES),GI50 (A549 NSCLC) [µM],TGI (A549 NSCLC) [µM],GI50 (U251 CNS) [µM],TGI (U251 CNS) [µM],GI50 (786-0 renal) [µM],TGI (786-0 renal) [µM],GI50 (SW-620 colon) [µM],TGI (SW-620 colon) [µM],GI50 (A498 renal) [µM],TGI (A498 renal) [µM],GI50 (KM12 colon) [µM],TGI (KM12 colon) [µM],GI50 (HCT-116 colon) [µM],TGI (HCT-116 colon) [µM],GI50 (OVCAR-3 ovarian) [µM],TGI (OVCAR-3 ovarian) [µM],GI50 (OVCAR-4 ovarian) [µM],TGI (OVCAR-4 ovarian) [µM],GI50 (SR leukemia) [µM],TGI (SR leukemia) [µM]
CCNC(=O)c1cc2c(-c3cc(C(C)(C)O)ccc3Oc3c(C)cc(F)cc3C)cn(C)c(=O)c2[nH]1,2.1,14.6,2.09,16.7,1.15,19.2,3.56,21,0.898,4.84,1.87,15.8,1.32,12.5,1.93,11.9,1.84,16.6,,
CCC1CCc2nc3sc(C(=O)Nc4cccc(F)c4)c(N)c3cc2C1 (centres undefined),> 100,> 100,> 100,> 100,0.701,> 100,0.707,> 100,0.602,> 100,,,2.25,> 100,0.757,> 100,> 100,> 100,0.379,> 100
COC1OC(COCc2ccc(Cl)cc2)C(OCc2ccc(Cl)cc2)C1N=[N+]=[N-] (centres undefined),,16,,> 100,,16.8,,> 100,,,,> 100,,> 100,,> 100,,> 100,,> 100
Clc1ccc(C2SCc3nc4ccccc4n32)cc1Cl (centres undefined),,32.6,,30.8,,27.3,,28.6,,,,27,,26.2,,22.5,,25.8,,55.1
CC1C[C@@H]2C(=O)NC(=O)[C@@H]2c2c1c1ccccc1n2C (some centres undefined),,> 100,,> 100,,> 100,,> 100,,> 100,,> 100,,,,> 100,,,,
COc1cc(C2=C(C#Cc3ccccc3)COC2=O)cc(OC)c1OC,14.2,> 100,1.91,5.61,< 0.0224,,0.755,,41.1,> 100,1.87,10.5,0.69,4.01,2.1,16.8,34.2,> 100,,
N#Cc1c(N)nc(N2CCOCC2)c(C#N)c1-c1cccnc1,> 100,> 100,> 100,> 100,> 100,> 100,> 100,> 100,27.5,80.8,> 100,> 100,86.6,> 100,26.6,89.7,44.4,> 100,,
Cc1cc(C)nc(NS(=O)(=O)c2ccc(Nc3c4ccc(Cl)cc4nc4c(C(=O)Nc5ccc(S(N)(=O)=O)cc5)cccc34)cc2)n1,,,,28.7,,28.7,,,,32.6,,27.2,,30.2,,30.2,,55.5,,51.5
COc1cc(OC)c(/C=C/c2cnc3ccccc3n2)c(OC)c1,,> 10,,> 10,,> 10,,> 10,,> 10,,> 10,,> 10,,> 10,,> 10,,
O=C1c2ccccc2C(=O)c2c1ccc(C1C(=O)c3ccccc3C1=O)c2-c1c(C2C(=O)c3ccccc3C2=O)ccc2c1C(=O)c1ccccc1C2=O,,> 100,,> 100,,> 100,,> 100,,> 100,,> 100,,> 100,,> 100,,> 100,,
CCOC(=O)C1=C(C)N(c2ccc(C)cc2)C2=C(C(=O)N(c3ccccc3)C2c2ccccc2)C1c1ccccc1 (centres undefined),,> 25,,> 25,,> 25,,> 25,,> 25,,,,> 25,,> 25,,> 25,,> 25
O=C(Cn1ccnc1[N+](=O)[O-])c1ccc(F)cc1,,> 100,,> 100,,> 100,,> 100,,> 100,,> 100,,,,> 100,,> 100,,
Nc1nc(-c2ccccc2)nc2c1[n+]([O-])c1ccccc1[n+]2[O-],,> 100,,> 100,,> 100,,> 100,,> 100,,> 100,,> 100,,> 100,,,,
CCCCCCCCCCCCCP(=O)(O)OCC,,> 100,,> 100,,> 100,,> 100,,> 100,,> 100,,> 100,,> 100,,> 100,,
CCc1cccc(C(C)C)c1N1C(=O)C(=O)C(c2nc3ccccc3s2)C(=O)C1=O,,> 50,,> 50,,> 50,,> 50,,> 50,,> 50,,> 50,,> 43.1,,> 50,,
C=C1CCC2C(C)(C)CCC[C@]2(C)[C@H]1CO (some centres undefined),73.9,> 100,49,> 100,57.3,> 100,> 100,> 100,,,87.7,> 100,30.4,> 100,> 100,> 100,,,,
Cc1c(COc2cc(OCc3cccc(C#N)c3)c(CN3C[C@H](O)C[C@@H]3C(=O)O)cc2Cl)cccc1-c1ccc2c(c1)OCCO2,22.1,55.3,17.3,47.3,3.87,15.3,16.7,31.5,18.7,33.3,16.1,30.3,1.96,4.18,,,24.7,61.4,2.65,8.95
CCCCCCCCCc1cccc(N2C(N)=NC(N)=NC2(C)C)c1,,4.26,,0.62,,1.3,,1.63,,16.7,,,,1.15,,0.193,,4.39,,
